Patent US8753673B2, “Liposome composition for delivery of a therapeutic agent to eyes” (Taiwan Liposome Co. Ltd., priority 2006, dated 2014)

How the values were obtained:
[1] = Fluorescein angiography (FAG) and visual observation of eyes in unilateral-CNV rats after i.v. injection; details: normal and CNV eyes, visual observation up to 24 hours
Procedure: Brown Norway (BN) pigmented rats, weighing between 200 and 250 gram, were anesthetized with intramuscular injection of 0.15 ml/kg of an equal-volume mixture of 2% lidocaine (Xylocalne; Astra, Astra Södertalje, Sweden) and 50 mg/mL ketamine (Ketalar; Parke-Davis, Morris Plains, N.J.). After anesthetizing, the right pupils were dilated with 1% tropicamide (1% Mydriacyl; Alcon Laboratories, Watford, UK). A small piece of transparent sheet (3M, Minneapolis, Minn.) approximately 3 mm in diameter was attached to the cornea by sodium hyaluronidase (Healon; Pharmacia and Upjohn, Inc., Kalamazoo, Mich.) to serve as a contact lens. Krypton laser (Novus Omni; Coherent, Palo Alto, Calif.) irradiation was delivered through a slit lamp (Carl Zeiss, Oberkochen, Germany). Laser parameters used were as follows: spot size of 100 mm, power of 120 to 160 mW, and exposure duration of 0.1 second. […] CNV was evaluated on day 14 by opthalmoscopy, fundus photography, and conventional fluorescein angiography (FAG) modified from (DiLoreto D, Grover D A, Del Cerro C. (1994) Curr Eye Res. 13, 157-61).
Fluorescein sodium (10%; 0.1 ml/kg; Fluorescite™; Alcon, Fort Worth, Tex.) was injected through the tail vein of the anesthetized rats 14 days after laser photocoagulation. The CNV lesions were recorded with a digital fundus camera (Retinal Angiography; Heidelberg Engineering, Heidelberg, Germany). […]

[2] = Bio-distribution of radioactivity in normal and CNV eyes of unilateral-CNV rats (γ scintillation counting after perfusion); type: in vivo, Brown Norway (BN) pigmented rats; details: for specific radioactivity, CNV eye: CNV (right) eye; for specific radioactivity, CNV eye / specific radioactivity, normal eye: i.v. 250 μCi, means ± s.d.; for specific radioactivity, normal eye: normal (left) eye
Procedure: (§1) In the process of monitoring the behavior of these animals, 2 to 3 out of the 10 rats were unable to walk straight. This abnormal behavior might be related to vision loss of the right eye as the result of laser photocoagulation. There were no other noticeable side effects observed in these rats.
After the SPECT, all rats were sacrificed and perfused with normal saline containing 2 mM EDTA. Animals were dissected to isolate both normal (left) and CNV (right) eyes. The isolated eyes were weighted and radioactivity associated with the eyes was counted by a γ scintillation counter (Cobra II Autogamma, Packed, USA). The uptake of radiotracer in the eyes or other tissues was expressed in counts per minute (cpm) with decay correction and was normalized as percent of injection dose per gram tissue (% ID/g).
The experiment determines the biodistribution of In^111, a small molecular marker and In^111-encapsulated liposome, a lipid nano-particle in an experimental CNV model. Ten unilateral CNV rats were randomly divided into two groups with 4 and 6 rats, respectively. Group 1 received 250 μCi of In^111-DTPA and group 2 received 250 μCi of In^111-encapsulated liposome by intravenous injection.

[3] = Single-photon emission computed tomography (SPECT) imaging of unilateral-CNV rats; type: in vivo, Brown Norway (BN) pigmented rats; details: 3, 24 and 48 hours after i.v. 250 μCi
Procedure: as §1
The SPECT imaging was carried out at 3, 24, and 48 hours after the injection of 250 μCi of either In^111-DTPA or In^111 encapsulated liposome. […] The center field of view was 25.4 cm^2 and a single energy centered window was used at […], with a width of 20%. A sequence of scans ([…]×6) was obtained over a period of 15 min. Images were reconstructed in a 128×128 (pixels) format from data with 32 projections distributed over 180° around the rat and a 40 s scan for each projection. The projections of each experiment were processed by reconstruction using filtered back projection, with a low-pass Butterworth filter of order 22.4 and cutoff frequency of 0.43. Each transverse image was reconstructed in a 128×128 array with a pixel size of 1.9×1.9 mm and a zoom of 2.0×.
The experiment determines the biodistribution of In^111, a small molecular marker and In^111-encapsulated liposome, a lipid nano-particle in an experimental CNV model. Ten unilateral CNV rats were randomly divided into two groups with 4 and 6 rats, respectively. […]

Row | Compound | visual appearance (colour) of the eyes after i.v. administration [1] | difference in specific radioactivity between the normal and CNV eyes ([2]; 24 and 48 hours post-injection) | specific radioactivity, CNV eye ([2]; 24 hours post injection) [% ID/g] | specific radioactivity, CNV eye ([2]; 48 hours post injection) [% ID/g] | specific radioactivity, normal eye ([2]; 24 hours post injection) [% ID/g] | specific radioactivity, normal eye ([2]; 48 hours post injection) [% ID/g] | accumulation of radioactivity in eyes on SPECT images [3]
1 | O=C1OC2(c3ccc(O)cc3Oc3cc(O)ccc32)c2ccccc21 [fluorescein sodium, Fluorescein sodium] | greenish color quickly disappeared within an hour |  |  |  |  |  | 
2 | O=C([O-])CN(CCN(CC(=O)[O-])CC(=O)[O-])CCN(CC(=O)[O-])CC(=O)[O-].[111In+3].[H+].[H+] [In^111-DTPA] |  | no difference | 0.14 ± 0.09 | 0.13 ± 0.05 | 0.16 ± 0.04 | 0.14 ± 0.06 | did not show any In^111 accumulation in both normal and CNV eyes even at 3 hours
